tested on: rat cytochrome P450 3A; details: 0.000001 %

Structure (SMILES) | % inhibition of cyclosporine metabolism, reference compound at 0.000001% (Table 3)
CC(=O)N1CCN(c2ccc(OCC3COC(Cn4ccnc4)(c4ccc(Cl)cc4Cl)O3)cc2)CC1 (stereo not drawn) [Ketoconazole, reference compound] | 8%

same assay, conditions: 0.000005 %

Structure (SMILES) | % inhibition of cyclosporine metabolism, reference compound at 0.000005% (Table 3)
CC(=O)N1CCN(c2ccc(OCC3COC(Cn4ccnc4)(c4ccc(Cl)cc4Cl)O3)cc2)CC1 (stereo not drawn) [Ketoconazole, reference compound] | 20%

same assay, conditions: 0.00001 %

Structure (SMILES) | % inhibition of cyclosporine metabolism, reference compound at 0.00001% (Table 3)
CC(=O)N1CCN(c2ccc(OCC3COC(Cn4ccnc4)(c4ccc(Cl)cc4Cl)O3)cc2)CC1 (stereo not drawn) [Ketoconazole, reference compound] | 42%

same assay, conditions: 0.00005 %

Structure (SMILES) | % inhibition of cyclosporine metabolism, reference compound at 0.00005% (Table 3)
CC(=O)N1CCN(c2ccc(OCC3COC(Cn4ccnc4)(c4ccc(Cl)cc4Cl)O3)cc2)CC1 (stereo not drawn) [Ketoconazole, reference compound] | 100%

same assay, conditions: microsomes

Structure (SMILES) | % inhibition of cyclosporine metabolism, repeat 0.001 (SD) (Table 2)
CC12CCC(CC1=O)C2(C)C (racemic) [Camphor-(±), 1,7,7-Trimethylbicyclo [2.2.1] heptan-2-one] | 53(3) %

same assay, conditions: oil ingredient 0.0001 wt. %, repeat assay(s); SD in parentheses

Structure (SMILES) | % inhibition of cyclosporine metabolism, repeat 0.0001(SD) (Table 2)
C=CC(C)(O)CCC=C(C)C (racemic) [Linalool-(±), 3,7-Dimethyl-1,6-octadien-3-ol] | -7(9) %
CC(C)=CCCC(C)CCO (stereo not drawn) [Citronellol-(DL)-(β), 3,7-Dimethyl-6-octen-1-ol] | 35(4) %

same assay, conditions: oil ingredient 0.0001 wt. %; from solvent baseline

Structure (SMILES) | % inhibition of cyclosporine metabolism, 0.0001% (Table 2)
C=CC(C)(O)CCC=C(C)C (racemic) [Linalool-(±), 3,7-Dimethyl-1,6-octadien-3-ol] | 41%
CCC=CCC1C(=O)CCC1CC(=O)OC (racemic) [Methyl Jasmonate-(±), Methyl-3-oxo-2-(2-pentenyl)-cyclopentane acetate] | -27%
C=C1C2CCC(C2)C1(C)C (single isomer, unassigned) [Camphene-(+), 2,2-Dimethyl-3-methylenebicyclo[2.2.1]heptane] | -49%
C=C(C)C1CC=C(C)C(O)C1 (single isomer, unassigned) [Carveol-(-), p-Mentha-6,8-dien-2-ot] | 2%
CC=C(C)C=CC=C(C)C [Allo Ocimene, 2,6-Dimethyl-2,4,6-octatriene] | 6%
O=C(/C=C/c1ccccc1)OCc1ccccc1 [Benzyl Cinnamate, Benzyl 3-phenylpropenoic acid] | 7%
COc1cc(CNC(=O)CCCC/C=C/C(C)C)ccc1O [Capsaicin, trans-8-Methyl-N-vanillyl-6 nonenamide] | 27%
Cc1ccc(C(C)C)cc1O [Carvacrol, 5-isoPropyl-2-methylphenol] | 11%
C=C(C)[C@@H]1CC=C(C)C(=O)C1 [Carvone-(R)-(-), p-Mentha-6,8-dien-2-one] | 27%
C=C(C)[C@H]1CC=C(C)C(=O)C1 [Carvone-(S)-(+), p-Mentha-6,8-dien-2-one] | 30%
C=C1CC/C=C(\C)CC[C@@H]2[C@@H]1CC2(C)C [Caryophyllene, trans-(-), β Caryophyllene] | 26%
CC(C)=CCC/C(C)=C/C=O [Citral] | 44%
CC(C)=CCCC(C)CCO (stereo not drawn) [Citronellol-(DL)-(β), 3,7-Dimethyl-6-octen-1-ol] | 41%
C=CCc1ccc(OC)cc1 [Estragole, 4-Allylanisole] | 7%
CCOC(=O)/C=C/c1ccccc1 [Ethyl Cinnamate, trans-, Ethyl 3-phenylpropenoic acid] | -13%
C=CCc1ccc(O)c(OC)c1 [Eugenol, 4-Allyl-2-methoxyphenol] | 9.8%
CC(C)=CCC/C(C)=C/CC/C(C)=C/CO [Farnesol. trans-, trans-, 3,7,11-Trimethyl-2,6,10-dodecatrien-1-ol] | 49%
CC1(C)[C@H]2CC[C@](C)(C2)[C@H]1O [Fenchol-(1R)-endo-(+), 1,3,3-Trimethylbicyclo [2.2.1] heptan-2-ol] | 18%
CC1(C)C(=O)[C@]2(C)CC[C@H]1C2 [Fenchone-(1R)-(-), 1,3,3-Trimethylbicyclo [2.2.1] heptan-2-one] | 14%
CC/C=C\CC1=C(C)CCC1=O [Jasmone, cis-, 3-Methyl-2-(2-pentenyl)-2-cyclopenten-1-one] | 16.0%
COC(=O)c1ccccc1N [Mcthyl Anthranilate, Methyl 2-aminobenzoate] | -7%
CC(C)[C@@H]1CC[C@@H](C)CC1=O [Menthone-(-), p-Menthan-3-one] | 14%
C=CC(=C)CCC=C(C)C [Myrcene-β, 7-Methyl-3-methylene-1,6-octadiene] | 0%
C=C1CC[C@H]2C[C@@H]1C2(C)C [Pinene-(1S)-(-)-β, 6,6-Dimethyl-2-methylenebicyclo[3.1.1]heptane] | -10%
CC(C)=C1CC[C@@H](C)CC1=O [Pulegone-(R)-(+), p-Menth-4(8)-en-3-one] | -17%
CC1=CCC(O)(C(C)C)CC1 (stereo not drawn) [Terpinen-4-ol, p-Menth-1-en-4-ol] | 3.81%
CC1=CC=C(C(C)C)CC1 [Terpinene-α, p-Mentha-1,3-diene] | -6%
CC1=CCC(C(C)(C)O)CC1 (stereo not drawn) [Terpineol-α, p-Menth-1-en-8-ol] | 13.4%

same assay, conditions: oil ingredient 0.001 wt. %; from solvent baseline

Structure (SMILES) | % inhibition of cyclosporine metabolism, 0.001% (Table 2)
C=CC(C)(O)CCC=C(C)C (racemic) [Linalool-(±), 3,7-Dimethyl-1,6-octadien-3-ol] | 72.0%
CCC=CCC1C(=O)CCC1CC(=O)OC (racemic) [Methyl Jasmonate-(±), Methyl-3-oxo-2-(2-pentenyl)-cyclopentane acetate] | 65%
C=C1C2CCC(C2)C1(C)C (single isomer, unassigned) [Camphene-(+), 2,2-Dimethyl-3-methylenebicyclo[2.2.1]heptane] | 12.4%
C=C(C)C1CC=C(C)C(O)C1 (single isomer, unassigned) [Carveol-(-), p-Mentha-6,8-dien-2-ot] | 60%
CC=C(C)C=CC=C(C)C [Allo Ocimene, 2,6-Dimethyl-2,4,6-octatriene] | 22%
C/C=C/c1ccc(OC)cc1 [Anethole, trans-, 4-Propenylanisole] | 53%
O=C(/C=C/c1ccccc1)OCc1ccccc1 [Benzyl Cinnamate, Benzyl 3-phenylpropenoic acid] | -45%
COc1cc(CNC(=O)CCCC/C=C/C(C)C)ccc1O [Capsaicin, trans-8-Methyl-N-vanillyl-6 nonenamide] | 68%
Cc1ccc(C(C)C)cc1O [Carvacrol, 5-isoPropyl-2-methylphenol] | 93%
C=C(C)[C@@H]1CC=C(C)C(=O)C1 [Carvone-(R)-(-), p-Mentha-6,8-dien-2-one] | 69%
C=C(C)[C@H]1CC=C(C)C(=O)C1 [Carvone-(S)-(+), p-Mentha-6,8-dien-2-one] | 70.5%
C=C1CC/C=C(\C)CC[C@@H]2[C@@H]1CC2(C)C [Caryophyllene, trans-(-), β Caryophyllene] | 85%
O=C/C=C/c1ccccc1 [Cinnamic Aldehyde, trans-, 3-Phenylpropenaldehyde] | 29.0%
CC(C)=CCC/C(C)=C/C=O [Citral] | 54%
CC(C)=CCCC(C)CCO (stereo not drawn) [Citronellol-(DL)-(β), 3,7-Dimethyl-6-octen-1-ol] | 86%
C=CCc1ccc(OC)cc1 [Estragole, 4-Allylanisole] | 69.2%
CCOC(=O)/C=C/c1ccccc1 [Ethyl Cinnamate, trans-, Ethyl 3-phenylpropenoic acid] | -16%

Structure (SMILES) | % inhibition of cyclosporine metabolism, 0.001% (Table 2)
C=CCc1ccc(O)c(OC)c1 [Eugenol, 4-Allyl-2-methoxyphenol] | 66%
CC(C)=CCC/C(C)=C/CC/C(C)=C/CO [Farnesol. trans-, trans-, 3,7,11-Trimethyl-2,6,10-dodecatrien-1-ol] | 82%
CC1(C)[C@H]2CC[C@](C)(C2)[C@H]1O [Fenchol-(1R)-endo-(+), 1,3,3-Trimethylbicyclo [2.2.1] heptan-2-ol] | 74%
CC1(C)C(=O)[C@]2(C)CC[C@H]1C2 [Fenchone-(1R)-(-), 1,3,3-Trimethylbicyclo [2.2.1] heptan-2-one] | 38%
CC(=O)OC/C=C(\C)CCC=C(C)C [Geranyl Acetate, trans-3,7-Dimethyl-2,6-octadien-1-yl acetate] | 51.5%
CC/C=C\CC1=C(C)CCC1=O [Jasmone, cis-, 3-Methyl-2-(2-pentenyl)-2-cyclopenten-1-one] | 68%
C=C(C)[C@H]1CC=C(C)CC1 [Limonene-(R)-(+), p-Mentha-1,8-diene] | 20%
C=C(C)[C@@H]1CC=C(C)CC1 [Limonene-(S)-(-), p-Mentha-1,8-diene] | 30%
C=CC(C)(CCC=C(C)C)OC(C)=O (stereo not drawn) [Linalyl Acetate, 3,7-Dimethyl-1,6-octadien-3-yl acetate] | 55.8%
COC(=O)c1ccccc1N [Mcthyl Anthranilate, Methyl 2-aminobenzoate] | 23%
CC(C)[C@@H]1CC[C@@H](C)CC1=O [Menthone-(-), p-Menthan-3-one] | 52%
C=CC(=C)CCC=C(C)C [Myrcene-β, 7-Methyl-3-methylene-1,6-octadiene] | 13%
C=C1CC[C@H]2C[C@@H]1C2(C)C [Pinene-(1S)-(-)-β, 6,6-Dimethyl-2-methylenebicyclo[3.1.1]heptane] | 60%
CC(C)=C1CC[C@@H](C)CC1=O [Pulegone-(R)-(+), p-Menth-4(8)-en-3-one] | 31%
CC1=CCC(O)(C(C)C)CC1 (stereo not drawn) [Terpinen-4-ol, p-Menth-1-en-4-ol] | 80%
CC1=CC=C(C(C)C)CC1 [Terpinene-α, p-Mentha-1,3-diene] | 28%
CC1=CCC(C(C)(C)O)CC1 (stereo not drawn) [Terpineol-α, p-Menth-1-en-8-ol] | 86%

same assay, conditions: oil ingredient 0.01 wt. %; from solvent baseline

Structure (SMILES) | % inhibition of cyclosporine metabolism, 0.01% (Table 2)
C=CC(C)(O)CCC=C(C)C (racemic) [Linalool-(±), 3,7-Dimethyl-1,6-octadien-3-ol] | 85%
C/C=C/c1ccc(OC)cc1 [Anethole, trans-, 4-Propenylanisole] | 100%
Cc1ccc(C(C)C)cc1O [Carvacrol, 5-isoPropyl-2-methylphenol] | 97%
C=C(C)[C@@H]1CC=C(C)C(=O)C1 [Carvone-(R)-(-), p-Mentha-6,8-dien-2-one] | 100%
O=C/C=C/c1ccccc1 [Cinnamic Aldehyde, trans-, 3-Phenylpropenaldehyde] | 78%
CC(C)=CCC/C(C)=C/C=O [Citral] | 99%
CC(C)=CCCC(C)CCO (stereo not drawn) [Citronellol-(DL)-(β), 3,7-Dimethyl-6-octen-1-ol] | 95%
C=CCc1ccc(OC)cc1 [Estragole, 4-Allylanisole] | 100%
CCOc1cc(C=O)ccc1O [Ethyl Vanillin, 3-Ethoxy-4-hydroxybenzaledhyde] | 58%
C=CCc1ccc(O)c(OC)c1 [Eugenol, 4-Allyl-2-methoxyphenol] | 100%
CC1(C)[C@H]2CC[C@](C)(C2)[C@H]1O [Fenchol-(1R)-endo-(+), 1,3,3-Trimethylbicyclo [2.2.1] heptan-2-ol] | 100%
CC(=O)OC/C=C(\C)CCC=C(C)C [Geranyl Acetate, trans-3,7-Dimethyl-2,6-octadien-1-yl acetate] | 73%
C=C(C)[C@H]1CC=C(C)CC1 [Limonene-(R)-(+), p-Mentha-1,8-diene] | 84%
C=C(C)[C@@H]1CC=C(C)CC1 [Limonene-(S)-(-), p-Mentha-1,8-diene] | 82.3%
C=CC(C)(CCC=C(C)C)OC(C)=O (stereo not drawn) [Linalyl Acetate, 3,7-Dimethyl-1,6-octadien-3-yl acetate] | 100%
C=C1CC[C@H]2C[C@@H]1C2(C)C [Pinene-(1S)-(-)-β, 6,6-Dimethyl-2-methylenebicyclo[3.1.1]heptane] | 88%
CC1=CCC(O)(C(C)C)CC1 (stereo not drawn) [Terpinen-4-ol, p-Menth-1-en-4-ol] | 100%
CC1=CCC(C(C)(C)O)CC1 (stereo not drawn) [Terpineol-α, p-Menth-1-en-8-ol] | 100%
